# Measurements reported in ChEMBL document CHEMBL3871289, “Design, synthesis and antithrombotic evaluation of novel non-peptide thrombin inhibitors” (Bioorg Med Chem, 2017).
# Calls of active or inactive are those of the source. No cut-off for these calls is given here.
# Target: Prothrombin (Homo sapiens, UniProt P00734)
# Experiment: Inhibition of human thrombin assessed as reduction in release of free nitroaniline using tosyl-glycyl-prolyl-arginine-4-nitranilide acetate as substrate preincubated for 10 mins followed by substrate addition by spectrophotometer
row,IC50 [nM],Compound
1,511,N=C(N)c1ccc(CC2NCCn3c2nc2cc(C4(C(=O)N5CCCC5)CC4)ccc23)cc1 (stereo not drawn)
2,1920,CCOC(=O)C1(c2ccc3c(c2)nc2n3CCNC2Cc2ccc(C(=N)N)cc2)CCCC1 (stereo not drawn)
3,1000,CC(C)(C(=O)N1CCCCC1)c1ccc2c(c1)nc1n2CCNC1Cc1ccc(C(=N)N)cc1 (stereo not drawn)
4,1030,N=C(N)c1ccc(CC2NCCn3c2nc2cc(C4(C(=O)N5CCCCC5)CCCC4)ccc23)cc1 (stereo not drawn)
5,147,CC(C)(C(=O)N1CCCC1)c1ccc2c(c1)nc1n2CCNC1Cc1ccc(C(=N)N)cc1 (stereo not drawn)
6,456,N=C(N)c1ccc(CC2NCCn3c2nc2cc(C4(C(=O)N5CCCCC5)CCC4)ccc23)cc1 (stereo not drawn)
7,446,N=C(N)c1ccc(CC2NCCn3c2nc2cc(C4(C(=O)N5CCCC5)CCC4)ccc23)cc1 (stereo not drawn)
8,437,N=C(N)c1ccc(CC2NCCn3c2nc2cc(C4(C(=O)N5CCCCC5)CC4)ccc23)cc1 (stereo not drawn)
9,1440,CCOC(=O)C(C)(C)c1ccc2c(c1)nc1n2CCNC1Cc1ccc(C(=N)N)cc1 (stereo not drawn)
10,82.8,N=C(N)c1ccc(CC2NCCn3c2nc2cc(C4(C(=O)N5CCCC5)CCCC4)ccc23)cc1 (stereo not drawn)

# Tested on: Rattus norvegicus
# Experiment: Anti-thrombotic activity in intragastrically dosed Sprague-Dawley rat venous thrombosis model assessed as reduction in thrombus weight administered once daily for 3 days measured 2 hrs post last dose
# Type: functional, organism-based
row,Compound,Activity
1,Cc1nc(C)c(OC(=O)/N=C(\N)c2ccc(CC3NCCn4c3nc3cc(C5(C(=O)N6CCCC6)CCCC5)ccc34)cc2)nc1C (stereo not drawn),Dose-dependent effect
2,CC(C)(C)OC(=O)/N=C(\N)c1ccc(CC2NCCn3c2nc2cc(C4(C(=O)N5CCCC5)CCCC4)ccc23)cc1 (stereo not drawn),Dose-dependent effect

# Tested on: Rattus norvegicus
# Experiment: Anti-thrombotic activity in Sprague-Dawley rat venous thrombosis model assessed as reduction in thrombus weight at 5 mg/kg, ig administered once daily for 3 days measured 2 hrs post last dose
# Type: functional, organism-based
row,Compound,Activity
1,CCCCCCOC(=O)NC(=N)c1ccc(NCc2nc3cc(C(=O)N(CCC(=O)OCC)c4ccccn4)ccc3n2C)cc1,Active
